HELM strings list units from the 5' end as sugar, base in round brackets, then linkage (d deoxyribose, r ribose, m 2'-O-methyl, p phosphodiester). Strings are as the collection lists them, not checked against the first reports. ss, as = sense and antisense strand; [una] = unlocked nucleic acid; [hna] = hexitol nucleic acid; [s4r] = 4'-thioribose; [fl2r] = 2'-fluoro
Conditions: siRNA
Also: test system not given here.

Substance	target mRNA knockdown
RNA1{m(A)p.r(G)p.r(C)p.r(U)p.r(C)p.r(U)p.r(U)p.r(U)p.r(G)p.r(U)p.r(C)p.m(A)p.r(C)p.r(C)p.r(U)p.r(C)p.r(U)p.r(C)p.r(U)p.r(T)p.r(T)}|RNA2{m(A)p.r(G)p.m(A)p.r(G)p.m(A)p.r(G)p.m(G)p.r(U)p.m(G)p.r(A)p.m(C)p.r(A)p.m(A)p.r(A)p.m(G)p.r(A)p.m(G)p.r(C)p.m(U)p.r(T)p.r(T)}$$$RNA1{StrandType:ss}|RNA2{StrandType:as}$	19%
RNA1{r(C)p.r(G)p.r(U)p.r(A)p.r(C)p.r(G)p.r(C)p.r(G)p.r(G)p.r(A)p.r(A)p.r(U)p.r(A)p.r(C)p.r(U)p.[s4r](U)p.[s4r](C)p.[s4r](G)p.[s4r](A)p.r(T)p.r(T)}|RNA2{r(U)p.r(C)p.r(G)p.r(A)p.r(A)p.r(G)p.r(U)p.r(A)p.r(U)p.r(U)p.r(C)p.r(C)p.r(G)p.r(C)p.r(G)p.[s4r](U)p.[s4r](A)p.[s4r](C)p.[s4r](G)p.r(T)p.r(T)}$$$RNA1{StrandType:ss}|RNA2{StrandType:as}$	83.4%
RNA1{m(A)p.r(A)p.m(U)p.r(A)p.m(A)p.r(G)p.m(C)p.r(A)p.m(G)p.r(C)p.m(U)p.r(C)p.m(G)p.r(C)p.m(G)p.r(C)p.m(U)p.r(C)p.m(C)p.r(T)p.r(T)}|RNA2{r(G)p.r(G)p.m(A)p.r(G)p.r(C)p.r(G)p.r(C)p.r(G)p.m(A)p.r(G)p.r(C)p.r(U)p.r(G)p.r(C)p.r(U)p.r(U)p.m(A)p.r(U)p.r(U)p.r(T)p.r(T)}$$$RNA1{StrandType:ss}|RNA2{StrandType:as}$	32%
RNA1{r(A)p.r(A)p.m(C)p.r(A)p.r(G)p.r(U)p.r(C)p.r(C)p.r(U)p.m(U)p.r(A)p.r(G)p.r(C)p.m(U)p.r(A)p.r(C)p.r(G)p.r(C)p.m(U)p.r(T)p.r(T)}|RNA2{r(A)p.r(G)p.r(C)p.r(G)p.m(U)p.r(A)p.r(G)p.r(C)p.m(U)p.r(A)p.r(A)p.r(G)p.r(G)p.r(A)p.r(C)p.m(U)p.r(G)p.r(U)p.r(U)p.r(T)p.r(T)}$$$RNA1{StrandType:ss}|RNA2{StrandType:as}$	85%
RNA1{r(A)p.r(G)p.r(A)p.r(G)p.r(U)p.r(U)p.r(G)p.r(G)p.r(G)p.r(A)p.r(U)p.r(U)p.r(A)p.r(G)p.r(G)p.r(G)p.r(C)p.r(U)p.r(U)p.r(T)p.r(T)}|RNA2{m(A)p.r(A)p.m(G)p.r(C)p.m(C)p.r(C)p.m(U)p.r(A)p.m(A)p.r(U)p.m(C)p.r(C)p.m(C)p.r(A)p.m(A)p.r(C)p.m(U)p.r(C)p.m(U)p.r(T)p.r(T)}$$$RNA1{StrandType:ss}|RNA2{StrandType:as}$	45%
RNA1{r(U)p.r(U)p.m(U)p.r(G)p.r(A)p.r(U)p.m(C)p.r(A)p.r(G)p.r(C)p.r(G)p.r(G)p.r(A)p.r(G)p.r(A)p.r(C)p.r(U)p.r(C)p.r(G)p.r(T)p.r(T)}|RNA2{r(C)p.r(G)p.r(A)p.r(G)p.r(U)p.r(C)p.r(U)p.r(C)p.r(C)p.r(G)p.r(C)p.m(U)p.r(G)p.r(A)p.r(U)p.m(C)p.r(A)p.r(A)p.r(A)p.r(T)p.r(T)}$$$RNA1{StrandType:ss}|RNA2{StrandType:as}$	89%
RNA1{r(G)p.r(A)p.r(G)p.[fl2r](U)p.r(A)p.r(U)p.r(U)p.r(U)p.r(C)p.r(C)p.r(G)p.r(C)p.r(U)p.r(G)p.r(G)p.r(A)p.r(A)p.r(C)p.r(U)p.r(T)p.r(T)}|RNA2{r(A)p.r(G)p.r(U)p.r(U)p.r(C)p.r(C)p.r(A)p.r(G)p.r(C)p.r(G)p.r(G)p.r(A)p.r(A)p.r(A)p.[fl2r](U)p.r(A)p.r(C)p.r(U)p.r(C)p.r(T)p.r(T)}$$$RNA1{StrandType:ss}|RNA2{StrandType:as}$	75%
RNA1{r(G)p.r(A)p.r(C)p.r(G)p.[hna](U)p.r(A)p.r(A)p.[hna](A)p.r(C)p.r(G)p.[hna](G)p.r(C)p.r(C)p.[hna](A)p.r(C)p.r(A)p.r(A)p.r(G)p.r(U)p.r(U)p.d(T)}|RNA2{r(A)p.[hna](C)p.r(U)p.r(U)p.r(G)p.r(U)p.r(G)p.r(G)p.[hna](C)p.r(C)p.r(G)p.r(U)p.r(U)p.r(U)p.r(A)p.r(C)p.r(G)p.[hna](U)p.[hna](C)p.[hna](G)p.d(T)}$$$RNA1{StrandType:ss}|RNA2{StrandType:as}$	0%
RNA1{r(G)p.r(A)p.r(U)p.r(U)p.r(C)p.m(C)p.r(A)p.r(A)p.r(A)p.r(C)p.r(C)p.r(C)p.r(C)p.r(A)p.r(C)p.m(U)p.r(A)p.r(U)p.r(C)p.r(T)p.r(T)}|RNA2{r(G)p.r(A)p.r(U)p.r(A)p.r(G)p.r(U)p.r(G)p.r(G)p.r(G)p.r(G)p.r(U)p.r(U)p.r(U)p.r(G)p.r(G)p.r(A)p.r(A)p.r(U)p.r(C)p.r(T)p.r(T)}$$$RNA1{StrandType:ss}|RNA2{StrandType:as}$	67%
RNA1{r(G)p.r(G)p.r(G)p.r(G)p.r(C)p.r(U)p.r(C)p.r(U)p.r(U)p.r(C)p.r(U)p.m(A)p.r(C)p.r(A)p.r(U)p.r(U)p.r(C)p.r(C)p.r(C)p.r(T)p.r(T)}|RNA2{r(G)p.r(G)p.r(G)p.r(A)p.r(A)p.r(U)p.r(G)p.m(U)p.r(A)p.r(G)p.r(A)p.r(A)p.r(G)p.r(A)p.r(G)p.r(C)p.r(C)p.r(C)p.r(C)p.r(T)p.r(T)}$$$RNA1{StrandType:ss}|RNA2{StrandType:as}$	72%
RNA1{r(G)p.r(A)p.r(A)p.r(G)p.r(A)p.r(G)p.r(U)p.m(U)p.r(A)p.r(A)p.r(C)p.r(C)p.r(C)p.r(G)p.r(G)p.r(G)p.r(A)p.r(C)p.r(U)p.r(T)p.r(T)}|RNA2{r(A)p.r(G)p.r(U)p.r(C)p.r(C)p.r(C)p.r(G)p.r(G)p.r(G)p.r(U)p.m(U)p.r(A)p.r(A)p.r(C)p.r(U)p.r(C)p.r(U)p.r(U)p.r(C)p.r(T)p.r(T)}$$$RNA1{StrandType:ss}|RNA2{StrandType:as}$	51%
RNA1{r(U)p.[fl2r](U)p.r(A)p.r(C)p.r(C)p.r(C)p.r(C)p.r(G)p.r(A)p.r(U)p.r(U)p.[fl2r](C)p.r(A)p.r(G)p.r(C)p.r(C)p.r(U)p.r(C)p.r(U)p.r(T)p.r(T)}|RNA2{r(A)p.r(G)p.r(A)p.r(G)p.r(G)p.r(C)p.[fl2r](U)p.r(G)p.r(A)p.r(A)p.r(U)p.r(C)p.r(G)p.r(G)p.r(G)p.r(G)p.[fl2r](U)p.r(A)p.r(A)p.r(T)p.r(T)}$$$RNA1{StrandType:ss}|RNA2{StrandType:as}$	82%
RNA1{r(G)p.r(G)p.r(A)p.r(G)p.m(C)p.r(A)p.r(C)p.r(G)p.r(C)p.r(U)p.m(U)p.r(A)p.r(C)p.m(U)p.r(A)p.r(C)p.r(C)p.r(U)p.r(U)p.r(T)p.r(T)}|RNA2{r(A)p.r(A)p.r(G)p.r(G)p.m(U)p.r(A)p.r(G)p.m(U)p.r(A)p.r(A)p.r(G)p.r(C)p.r(G)p.m(U)p.r(G)p.r(C)p.r(U)p.r(C)p.r(C)p.r(T)p.r(T)}$$$RNA1{StrandType:ss}|RNA2{StrandType:as}$	68%
RNA1{r(G)p.r(U)p.r(A)p.r(U)p.r(G)p.r(A)p.r(C)p.r(C)p.r(G)p.r(A)p.r(C)p.r(U)p.r(A)p.r(C)p.r(G)p.r(C)p.r(G)p.r(U)p.r(A)p.r(T)p.r(T)}|RNA2{r(U)p.r(U)p.r(C)p.r(A)p.r(G)p.r(U)p.r(G)p.r(U)p.r(G)p.[una](A)p.r(U)p.r(G)p.r(A)p.r(C)p.r(A)p.r(C)p.r(U)p.r(U)p.r(G)p.r(T)p.r(T)}$$$RNA1{StrandType:ss}|RNA2{StrandType:as}$	23%
RNA1{[s4r](C)p.[s4r](G)p.[s4r](U)p.[s4r](A)p.[s4r](C)p.[s4r](G)p.r(C)p.r(G)p.r(G)p.r(A)p.r(A)p.r(U)p.r(A)p.r(C)p.r(U)p.r(U)p.r(C)p.r(G)p.r(A)p.r(T)p.r(T)}|RNA2{r(U)p.r(C)p.r(G)p.r(A)p.r(A)p.r(G)p.r(U)p.r(A)p.r(U)p.r(U)p.r(C)p.r(C)p.r(G)p.r(C)p.r(G)p.r(U)p.r(A)p.r(C)p.r(G)p.r(T)p.r(T)}$$$RNA1{StrandType:ss}|RNA2{StrandType:as}$	94%
RNA1{r(A)p.r(A)p.r(G)p.r(G)p.r(A)p.r(C)p.r(C)p.[fl2r](U)p.r(A)p.r(G)p.r(A)p.r(G)p.r(G)p.r(A)p.r(G)p.r(U)p.r(C)p.r(A)p.r(C)p.r(T)p.r(T)}|RNA2{r(G)p.r(U)p.r(G)p.r(A)p.r(C)p.r(U)p.r(C)p.r(C)p.r(U)p.r(C)p.[fl2r](U)p.r(A)p.r(G)p.r(G)p.r(U)p.r(C)p.r(C)p.r(U)p.r(U)p.r(T)p.r(T)}$$$RNA1{StrandType:ss}|RNA2{StrandType:as}$	88%
RNA1{r(G)p.r(A)p.r(C)p.r(G)p.[hna](U)p.r(A)p.r(A)p.[hna](A)p.r(C)p.r(G)p.[hna](G)p.r(C)p.r(C)p.[hna](A)p.r(C)p.r(A)p.r(A)p.r(G)p.[hna](U)p.[hna](U)p.d(T)}|RNA2{[fl2r](A)p.m(C)p.[fl2r](U)p.m(U)p.[fl2r](G)p.m(U)p.[fl2r](G)p.m(G)p.[fl2r](C)p.m(C)p.[fl2r](G)p.m(U)p.[fl2r](U)p.m(U)p.[fl2r](A)p.m(C)p.[fl2r](G)p.m(U)p.[fl2r](C)p.m(G)p.[fl2r](C)}$$$RNA1{StrandType:ss}|RNA2{StrandType:as}$	23.3%
RNA1{[fl2r](A)p.r(A)p.[fl2r](A)p.r(C)p.[fl2r](C)p.r(A)p.[fl2r](G)p.r(G)p.[fl2r](A)p.r(A)p.[fl2r](G)p.r(G)p.[fl2r](G)p.r(G)p.[fl2r](A)p.r(A)p.[fl2r](A)p.r(U)p.[fl2r](C)p.r(T)p.r(T)}|RNA2{r(G)p.[fl2r](A)p.r(U)p.r(U)p.r(U)p.r(C)p.r(C)p.r(C)p.r(C)p.r(U)p.r(U)p.r(C)p.r(C)p.r(U)p.r(G)p.r(G)p.r(U)p.r(U)p.r(U)p.r(T)p.r(T)}$$$RNA1{StrandType:ss}|RNA2{StrandType:as}$	42%
RNA1{[s4r](C)p.[s4r](G)p.r(U)p.r(A)p.r(C)p.r(G)p.r(C)p.r(G)p.r(G)p.r(A)p.r(A)p.r(U)p.r(A)p.r(C)p.r(U)p.r(U)p.r(C)p.r(G)p.r(A)p.r(T)p.r(T)}|RNA2{r(U)p.r(C)p.r(G)p.r(A)p.r(A)p.r(G)p.r(U)p.r(A)p.r(U)p.r(U)p.r(C)p.r(C)p.r(G)p.r(C)p.r(G)p.r(U)p.r(A)p.r(C)p.r(G)p.r(T)p.r(T)}$$$RNA1{StrandType:ss}|RNA2{StrandType:as}$	95.5%
RNA1{r(A)p.r(A)p.r(C)p.r(A)p.r(G)p.r(U)p.r(C)p.r(C)p.r(U)p.m(U)p.r(A)p.r(G)p.r(C)p.m(U)p.r(A)p.r(C)p.r(G)p.r(C)p.m(U)p.r(T)p.r(T)}|RNA2{r(A)p.r(G)p.r(C)p.r(G)p.m(U)p.r(A)p.r(G)p.r(C)p.r(U)p.r(A)p.r(A)p.r(G)p.r(G)p.r(A)p.r(C)p.r(U)p.r(G)p.r(U)p.r(U)p.r(T)p.r(T)}$$$RNA1{StrandType:ss}|RNA2{StrandType:as}$	82%
